Results from US10647678B2 (Cancer Research Technology Limited, priority 2015, dated 2020).
pIC50: −log10 of the molar value.

System: HSF1 pathway (HSP72 expression) in SK-OV-3 cells
Experiment: Cell-based ELISA (Cellisa) assay: HSP72 induction by 17-AAG in SK-OV-3 cells
Details: Homo sapiens, compound 1 h before 17-AAG (250 nM), then 18 h, HSP72 antibody, europium counts normalised to protein, 50% inhibitory concentration, read-out: SKOV3 Cellisa
Description: U2OS cells (5-8×10^4 cells/mL) or SK-OV-3 cells (5-8×10^4 cells/mL) were seeded into 96-well plates and incubated at 37° C. for 48 h. […] Cells were then incubated for 18 h. The medium was removed washed 2× with PBS and cells were then fixed with fixing solution (4% paraformaldehyde, 0.3% TritonX-100 in PBS) for 30 min at 4° C. The plates were then washed 2× with PBS before blocking with 5% milk for 30 min at 37° C. After washing the plates 4× with 0.1% Tween-20/deionised water, HSP72 antibody (SPA-810, Enzo Life) was added for 1.5 h at 37° C. Following 4× washes, the plates were incubated with europium-labelled anti-mouse antibody (0.6 ug/ml) in Delfia assay buffer (Perkin Elmer) for 1 h at 37° C. After washing the plates, Delfia enhancement solution was added, shaken for 10 min before reading in the Envision plate reader (Perkin-Elmer) with excitation at 340 nm and emission at 615 nm. The plates were washed again before protein determination using the bicinchoninic acid assay (BCA assay, Pierce Biotechnology). The europium counts were normalised for the amount of protein in each well. The 50% inhibitory concentration value of the compound was then calculated.

Row | Compound | pIC50
1 | Cc1ccc2cc(C(=O)Nc3cc(NC(=O)c4ccc5c(c4)OC(C)C5)ccc3C)ccc2n1 (racemic) [Example 2, (rac)-2-Methyl-N-(2-methyl-5-(2-methyl-2,3-dihydrobenzofuran-6-carboxamido)phenyl)quinoline-6-carboxamide] | 5.47
2 | Cc1ccc2cc(C(=O)Nc3cc(NC(=O)c4ccc5c(c4)OC(C)CO5)ccc3C)ccc2n1 (racemic) [Example 3, (rac)-2-Methyl-N-(2-methyl-5-(3-methyl-2,3-dihydrobenzo[b][1,4]dioxine-6-carboxamido)phenyl)quinoline-6-carboxamide] | 5.39
3 | Cc1ccc2cc(C(=O)Nc3cc(NC(=O)c4ccc5c(c4)CC(C)O5)ccc3C)ccc2n1 (racemic) [Example 5, (rac)-2-Methyl-N-(2-methyl-5-(2-methyl-2,3-dihydrobenzofuran-5-carboxamido)phenyl)quinoline-6-carboxamide] | 5.54
4 | Cc1ccc2cc(C(=O)Nc3cc(NC(=O)c4ccc5c(c4)OC(C)CO5)ccc3F)ccc2n1 (centres unmarked) [Example 4, N-(2-Fluoro-5-(3-methyl-2,3-dihydrobenzo[b][1,4]dioxine-6-carboxamido)phenyl)-2-methylquinoline-6-carboxamide] | 5.06
5 | Cc1ccc2cc(C(=O)Nc3cc(NC(=O)c4ccc5c(c4)OCCC5)ccc3F)ccc2n1 [Example 6, N-(5-(Chroman-7-carboxamido)-2-fluorophenyl)-2-methylquinoline-6-carboxamide] | 5.57
6 | Cc1ccc2cc(C(=O)Nc3cc(NC(=O)c4ccc5c(c4)OCCC5)ccc3Cl)ccc2n1 [Example 7, N-(2-Chloro-5-(chroman-7-carboxamido)phenyl)-2-methylquinoline-6-carboxamide] | 5.82
7 | Cc1ccc2cc(C(=O)Nc3cc(NC(=O)c4ccc5c(c4)OCO5)ccc3C)ccc2n1 [Example 8, N-(5-(Benzo[d][1,3]dioxole-5-carboxamido)-2-methylphenyl)-2-methylquinoline-6-carboxamide] | 6.89
8 | Cc1ccc2cc(C(=O)Nc3cc(NC(=O)c4ccc5c(c4)OCC5)ccc3C)ccc2n1 [Example 9, N-(5-(2,3-Dihydrobenzofuran-6-carboxamido)-2-methylphenyl)-2-methylquinoline-6-carboxamide] | 6.77
9 | Cc1ccc2cc(C(=O)Nc3cc(NC(=O)c4ccc5c(c4)CCO5)ccc3C)ccc2n1 [Example 10, N-(5-(2,3-dihydrobenzofuran-5-carboxamido)-2-methylphenyl)-2-methylquinoline-6-carboxamide] | 5.74
10 | Cc1ccc2cc(C(=O)Nc3cc(NC(=O)c4ccc5ccoc5c4)ccc3C)ccc2n1 [Example 11, N-(5-(benzofuran-6-carboxamido)-2-methylphenyl)-2-methylquinoline-6-carboxamide] | 6.06
11 | Cc1ccc2cc(C(=O)Nc3cc(NC(=O)c4ccc5c(c4)OCCCO5)ccc3C)ccc2n1 [Example 12, N-(5-(3,4-dihydro-2H-benzo[b][1,4]dioxepine-7-carboxamido)-2-methylphenyl)-2-methylquinoline-6-carboxamide] | 6.17
12 | Cc1ccc2cc(C(=O)Nc3cc(NC(=O)c4ccc5c(c4)OCC5)ccc3F)ccc2n1 [Example 13, N-(5-(2,3-Dihydrobenzofuran-6-carboxamido)-2-fluorophenyl)-2-methylquinoline-6-carboxamide] | 5.74
13 | Cc1ccc2cc(C(=O)Nc3cc(NC(=O)c4ccc5c(c4)OCC5)ccc3Cl)ccc2n1 [Example 14, N-(2-Chloro-5-(2,3-dihydrobenzofuran-6-carboxamido)phenyl)-2-methylquinoline-6-carboxamide] | 5.68
14 | CCN1CCN(Cc2ccc3cc(C(=O)Nc4cc(NC(=O)c5ccc6c(c5)OCCC6)ccc4F)ccc3n2)CC1 [Example 15, N-(5-(Chroman-7-carboxamido)-2-fluorophenyl)-2-((4-ethylpiperazin-1-yl)methyl)quinoline-6-carboxamide] | 6.00
15 | CCN1CCN(Cc2ccc3cc(C(=O)Nc4cc(NC(=O)c5ccc6c(c5)OCC6)ccc4C)ccc3n2)CC1 [Example 16, N-(5-(2,3-Dihydrobenzofuran-6-carboxamido)-2-methylphenyl)-2-((4-ethylpiperazin-1-yl)methyl)quinoline-6-carboxamide] | 6.92
16 | CCN1CCN(Cc2ccc3cc(C(=O)Nc4cc(NC(=O)c5ccc6c(c5)OCC6)ccc4F)ccc3n2)CC1 [Example 17, N-(5-(2,3-Dihydrobenzofuran-6-carboxamido)-2-fluorophenyl)-2-((4-ethylpiperazin-1-yl)methyl)quinoline-6-carboxamide] | 6.11
17 | CCN1CCN(Cc2ccc3cc(C(=O)Nc4cc(NC(=O)c5ccc6c(c5)OCC6)ccc4Cl)ccc3n2)CC1 [Example 18, N-(2-Chloro-5-(2,3-dihydrobenzofuran-6-carboxamido)phenyl)-2-((4-ethylpiperazin-1-yl)methyl)quinoline-6-carboxamide] | 6.19
18 | O=C(Nc1ccc(F)c(NC(=O)c2ccc3nc(CN4CCC4)ccc3c2)c1)c1ccc2c(c1)OCC2 [Example 19, 2-(Azetidin-1-ylmethyl)-N-(5-(2,3-dihydrobenzofuran-6-carboxamido)-2-fluorophenyl)quinoline-6-carboxamide] | 5.51
19 | O=C(Nc1ccc(Cl)c(NC(=O)c2ccc3nc(CN4CCC4)ccc3c2)c1)c1ccc2c(c1)OCCC2 [Example 20, 2-(Azetidin-1-ylmethyl)-N-(2-chloro-5-(chroman-7-carboxamido)phenyl)quinoline-6-carboxamide] | 5.42
20 | O=C(Nc1ccc(Cl)c(NC(=O)c2ccc3nc(CN4CCC4)ccc3c2)c1)c1ccc2c(c1)OCC2 [Example 21] | 5.74
